How the values were obtained:
[1] = tested on: Hepatitis B virus; test: Antiviral activity against Hepatitis B virus genotype D infected in HepDE19 cells assessed as inhibition of viral replication by measuring decrease in intracellular rcDNA level by bDNA assay; type: functional, organism-based
[2] = Selectivity index, ratio of CC50 for cytotoxicity against human HepDE19 cells to EC50 for antiviral activity against Hepatitis B virus genotype D infected in HepDE19 cells; type: toxicity, cell-based; settings: read-out: Ratio CC50/EC50
[3] = Cytotoxicity against human HepDE19 cells by CellTiter-Glo assay; type: toxicity, cell-based
[4] = Cmax in CD-1 mouse at 10 mg/kg, po; type: ADME, organism-based; settings: in vivo
[5] = Drug uptake in CD-1 mouse liver at 10 mg/kg, po or 2 mg/kg, iv measured after 24 hrs; type: ADME, organism-based; settings: read-out: Drug uptake
[6] = Half life in CD-1 mouse at 10 mg/kg, po; type: ADME, organism-based; settings: in vivo
[7] = AUC(last) in CD-1 mouse at 10 mg/kg, po; type: ADME, organism-based; settings: in vivo
[8] = Intrinsic clearance in human liver microsomes; type: ADME, Microsome; settings: read-out: CLH
[9] = Intrinsic clearance in mouse liver microsomes; type: ADME, Microsome; settings: read-out: CLH
[10] = tested on: Hepatitis B virus; test: Antiviral activity against Hepatitis B virus genotype D harboring core protein-T33N mutant; type: functional, organism-based
[11] = tested on: Hepatitis B virus; test: Anti-viral activity against Hepatitis B virus infected in mouse assessed as log10 reduction of HBV DNA levels in serum at 10 mg/kg, po qd for 7 days; type: functional; settings: time 7 day
[12] = tested on: Hepatitis B virus; test: Anti-viral activity against Hepatitis B virus infected in mouse assessed as log10 reduction of HBV DNA levels in serum at 3 mg/kg, po qd for 7 days; type: functional; settings: time 7 day
[13] = target: Cytochrome P450 2D6 (Homo sapiens, UniProt P10635); test: Inhibition of CYP2D6 (unknown origin); type: ADME
Cytochrome P450 2D6, sequence (P10635 whole entry): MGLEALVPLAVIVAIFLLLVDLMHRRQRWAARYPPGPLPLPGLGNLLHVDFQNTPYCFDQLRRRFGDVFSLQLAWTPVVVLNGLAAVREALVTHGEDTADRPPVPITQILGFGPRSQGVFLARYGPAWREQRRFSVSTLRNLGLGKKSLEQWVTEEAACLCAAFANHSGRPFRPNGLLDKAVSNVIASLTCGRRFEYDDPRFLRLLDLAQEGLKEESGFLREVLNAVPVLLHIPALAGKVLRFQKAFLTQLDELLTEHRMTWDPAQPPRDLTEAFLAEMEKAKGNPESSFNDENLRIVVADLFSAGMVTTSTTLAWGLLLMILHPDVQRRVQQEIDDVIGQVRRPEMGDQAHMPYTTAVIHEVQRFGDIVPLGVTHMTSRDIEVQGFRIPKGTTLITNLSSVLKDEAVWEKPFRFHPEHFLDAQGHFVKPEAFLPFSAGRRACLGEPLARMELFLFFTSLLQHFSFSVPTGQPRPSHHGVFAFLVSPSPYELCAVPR

[14] = target: Cytochrome P450 2C19 (Homo sapiens, UniProt P33261); test: Inhibition of CYP2C19 (unknown origin); type: ADME
Cytochrome P450 2C19, sequence (P33261 whole entry): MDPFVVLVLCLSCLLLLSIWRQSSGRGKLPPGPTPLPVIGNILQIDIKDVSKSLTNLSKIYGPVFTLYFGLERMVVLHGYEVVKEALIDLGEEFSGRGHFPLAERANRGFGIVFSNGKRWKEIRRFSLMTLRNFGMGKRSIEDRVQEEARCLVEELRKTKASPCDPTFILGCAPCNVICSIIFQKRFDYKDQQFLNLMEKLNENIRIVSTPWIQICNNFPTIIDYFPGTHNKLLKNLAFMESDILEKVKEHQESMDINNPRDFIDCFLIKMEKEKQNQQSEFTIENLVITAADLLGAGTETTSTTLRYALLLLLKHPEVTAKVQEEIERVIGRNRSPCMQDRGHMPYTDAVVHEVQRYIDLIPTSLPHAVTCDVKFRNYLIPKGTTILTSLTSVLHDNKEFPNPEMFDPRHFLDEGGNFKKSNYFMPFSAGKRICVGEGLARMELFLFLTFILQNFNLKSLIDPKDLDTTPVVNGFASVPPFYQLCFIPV

[15] = target: Cytochrome P450 3A4 (Homo sapiens, UniProt P08684); test: Inhibition of CYP3A4 (unknown origin); type: ADME
Cytochrome P450 3A4, sequence (P08684 whole entry): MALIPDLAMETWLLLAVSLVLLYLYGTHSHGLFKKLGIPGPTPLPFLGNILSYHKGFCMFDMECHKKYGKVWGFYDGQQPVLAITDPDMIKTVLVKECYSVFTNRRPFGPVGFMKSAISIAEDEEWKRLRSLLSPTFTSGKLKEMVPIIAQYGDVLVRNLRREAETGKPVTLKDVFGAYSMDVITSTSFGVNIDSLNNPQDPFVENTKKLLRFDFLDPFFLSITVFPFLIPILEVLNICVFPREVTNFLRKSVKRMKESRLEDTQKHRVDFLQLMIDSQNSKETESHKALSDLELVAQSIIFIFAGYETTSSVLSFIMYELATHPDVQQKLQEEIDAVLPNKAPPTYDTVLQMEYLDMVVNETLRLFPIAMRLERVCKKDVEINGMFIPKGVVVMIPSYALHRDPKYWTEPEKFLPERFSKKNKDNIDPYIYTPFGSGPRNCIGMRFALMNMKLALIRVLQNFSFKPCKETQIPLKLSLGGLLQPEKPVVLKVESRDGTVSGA

[16] = target: Cytochrome P450 2C9 (Homo sapiens, UniProt P11712); test: Inhibition of CYP2C9 (unknown origin); type: ADME
Cytochrome P450 2C9, sequence (P11712 whole entry): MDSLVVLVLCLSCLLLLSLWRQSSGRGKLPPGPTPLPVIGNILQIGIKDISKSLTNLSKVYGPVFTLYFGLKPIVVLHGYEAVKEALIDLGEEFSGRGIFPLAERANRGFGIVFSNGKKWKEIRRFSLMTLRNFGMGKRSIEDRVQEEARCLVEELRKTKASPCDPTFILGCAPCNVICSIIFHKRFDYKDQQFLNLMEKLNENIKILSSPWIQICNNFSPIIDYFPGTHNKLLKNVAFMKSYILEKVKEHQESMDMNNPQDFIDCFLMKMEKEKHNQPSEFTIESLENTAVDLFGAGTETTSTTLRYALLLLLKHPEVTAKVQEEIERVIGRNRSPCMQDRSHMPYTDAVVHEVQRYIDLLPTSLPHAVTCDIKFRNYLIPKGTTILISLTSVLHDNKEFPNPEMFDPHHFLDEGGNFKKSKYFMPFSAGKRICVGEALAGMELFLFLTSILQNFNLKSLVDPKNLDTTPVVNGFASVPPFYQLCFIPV

[17] = target: T1, Cytochrome P450 2B6 (Homo sapiens, UniProt P20813); test: Inhibition of CYP2B6 (unknown origin); type: ADME
T1 sequence (P20813 whole entry): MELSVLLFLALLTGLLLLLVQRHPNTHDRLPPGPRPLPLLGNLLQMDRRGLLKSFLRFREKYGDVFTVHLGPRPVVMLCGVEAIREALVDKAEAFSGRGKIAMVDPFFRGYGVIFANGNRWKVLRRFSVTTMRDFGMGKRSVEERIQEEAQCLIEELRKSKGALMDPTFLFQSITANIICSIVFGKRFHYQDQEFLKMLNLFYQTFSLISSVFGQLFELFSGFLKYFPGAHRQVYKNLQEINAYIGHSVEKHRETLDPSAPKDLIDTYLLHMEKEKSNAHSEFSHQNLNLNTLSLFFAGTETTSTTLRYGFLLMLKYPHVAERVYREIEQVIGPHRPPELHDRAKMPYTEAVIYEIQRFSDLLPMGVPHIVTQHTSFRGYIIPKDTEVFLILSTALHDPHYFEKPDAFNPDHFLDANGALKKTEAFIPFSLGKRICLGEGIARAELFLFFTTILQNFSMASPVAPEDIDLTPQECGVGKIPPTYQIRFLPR

[18] = Hepatitis B virus, genotype D, HepDE19

SMILES	EC50 [1, 18] [nM]	selectivity ratio [2]	CC50 [3] [nM]	microsomal CLint [8] [µL/min/mg]	microsomal CLint [9] [µL/min/mg]	also measured
CN(C(=O)Nc1cc(F)c(F)c(F)c1)[C@@H]1COCc2[nH]c(=O)c3cc(F)c(F)cc3c21	18	> 1500	> 10000	–	–	–
CN(C(=O)Nc1ccc(F)c(C#N)c1)[C@@H]1COCc2[nH]c(=O)c3cc(F)c(F)cc3c21	8	> 1500	> 10000	–	–	Cmax [4]: 720 ng/mL; concentration at 24 h [5]: 8 ng/g; half-life [6]: 2.4 h; AUC(0-t) [7]: 4330 ng·h/mL
CN(C(=O)Nc1ccc(F)c(Cl)c1)C1CCCc2[nH]c(=O)c3cc(F)ccc3c21 (racemic)	31	> 1500	> 10000	–	–	–
CC(C)CN(C(=O)Nc1ccc(F)c(Cl)c1)C1CCCc2[nH]c(=O)c3ccccc3c21 (racemic)	470	> 1500	> 10000	–	–	–
CN(C(=O)c1cc2cccc(F)c2[nH]1)C1COCc2[nH]c(=O)c3cc(F)c(F)cc3c21 (stereo not drawn)	11	> 1500	> 10000	81	57	–
CN(C(=O)Nc1ccc(F)c(Cl)c1)[C@@H]1CCc2[nH]c(=O)c3ccccc3c21	45	> 1500	> 10000	–	–	–
CN(C(=O)Nc1ccccc1)[C@@H]1COCc2[nH]c(=O)c3cc(F)c(F)cc3c21	33	> 1500	> 10000	–	–	–
CN(C(=O)c1cc2cc(F)ccc2[nH]1)[C@@H]1COCc2[nH]c(=O)c3cc(F)c(F)cc3c21	4	> 1500	> 10000	95	48	–
CN(C(=O)Nc1ccc(F)c(Cl)c1)[C@@H]1CNCc2[nH]c(=O)c3cc(F)c(F)cc3c21	9	> 1500	> 10000	86	23	–
CN(C(=O)Nc1ccc(F)c(Cl)c1)[C@@H]1COCc2[nH]c(=O)c3cc(F)c(F)cc3c21	7	> 1500	> 10000	54	27	EC50 [10]: 400 nM; Cmax [4]: 690 ng/mL; concentration at 24 h [5]: 150 ng/g; log(activity) [11]: 2.86; log(activity) [12]: 1.04; IC50 [13]: > 15000 nM; half-life [6]: 3.1 h; AUC(0-t) [7]: 6990 ng·h/mL; IC50 [14]: > 15000 nM; IC50 [15]: > 15000 nM; IC50 [16]: > 15000 nM; IC50 [17]: > 15000 nM
CN(C(=O)Nc1ccc(F)c(Cl)c1)C1CCCc2[nH]c(=O)c3cc(F)c(F)cc3c21 (stereo in doubt)	–	–	–	–	–	EC50 ([1]; hepde19): 1030 nM
CN(C(=O)Nc1ccc(F)c(Cl)c1)C1CCCc2[nH]c(=O)c3ccccc3c21 (racemic)	–	> 1500	> 10000	–	–	EC50 ([1]; hepde19): 84 nM
CN(C(=O)Nc1ccc(F)c(Cl)c1)[C@@H]1CSCc2[nH]c(=O)c3cc(F)c(F)cc3c21	21	> 1500	> 10000	216	112	–
CN(C(=O)c1cc2cc(F)c(F)c(F)c2[nH]1)[C@@H]1COCc2[nH]c(=O)c3cc(F)c(F)cc3c21	5	> 1500	> 10000	31	20	Cmax [4]: 1080 ng/mL; concentration at 24 h [5]: 3230 ng/g; half-life [6]: 10.8 h; AUC(0-t) [7]: 15900 ng·h/mL
CN(C(=O)Nc1ccc(F)c(Cl)c1)C1CCCc2[nH]c(=O)c3ccccc3c21 (stereo in doubt; 2b)	–	–	–	–	–	EC50 ([1]; hepde19): 45 nM
